# Measurements: patent publication US10065990B2, “Cyclic peptide compound, and preparation method, pharmaceutical composition and use thereof” (HANGZHOU GUANYU BIO-MEDICAL CO., LTD, priority 2013, dated 2018)
# Where two headings read alike, the source gives them in different places.
# Key:
# [1] = test system: K562 (human leukemia cells); assay: MTT cancer cell growth inhibition; assay type: cell-based; settings: Homo sapiens, K562, 72 h, MTT, 72 hours incubation, K562 cells; read-out: GI50 K562
# How it was run: (§1)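 72 h exposure, final drug 10^−5–10^−10 M, triplicate wells; 1500 cells/well plated the day before; medium DMEM or 1640 + 10% FBS; 37° C./5% CO2. MTT (5 mg/ml stock) 4 h, DMSO solubilisation, A570 → % viability → GI50.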
# [2] = test system: MOLT-4 (human acute lymphoblastic leukemia cells); assay: MTT cancer cell growth inhibition; assay type: cell-based; settings: Homo sapiens, MOLT-4, 72 h, MTT, 72 hours incubation, read-out: GI50 Mol
# How it was run: as §1
# [3] = test system: U937 (human leukemia cells); assay: MTT cancer cell growth inhibition; assay type: cell-based; settings: Homo sapiens, U-937, 72 h, MTT, 72 hours incubation, read-out: GI50 U93
# How it was run: as §1
# [4] = test system: H1975 (non-small cell lung adenocarcinoma); assay: MTT cancer cell growth inhibition; assay type: cell-based; settings: Homo sapiens, NCI-H1975, 72 h, MTT, 72 hours incubation, H1975 cells; read-out: GI50 H1975
# How it was run: as §1
# [5] = test system: BGC-823 (human gastric cancer cells); assay: MTT cancer cell growth inhibition; assay type: cell-based; settings: Homo sapiens, BGC-823, 72 h, MTT, 72 hours incubation, read-out: GI50 BG
# How it was run: as §1
# [6] = test system: KBM-5 (human chronic myelogenous leukemia); assay: MTT cancer cell growth inhibition; assay type: cell-based; settings: Homo sapiens, KBM5, 72 h, MTT, 72 hours incubation, KBM-5 cells; read-out: GI50 KBM-5
# How it was run: as §1
# [7] = test system: HCC827 (human non-small cell lung cancer cells); assay: MTT cancer cell growth inhibition; assay type: cell-based; settings: Homo sapiens, HCC827, 72 h, MTT, 72 hours incubation, HCC827 cells; read-out: GI50 HCC827
# How it was run: as §1
# [8] = test system: Hela (human cervical cancer cells); assay: MTT cancer cell growth inhibition; assay type: cell-based; settings: Homo sapiens, HeLa, 72 h, MTT, 72 hours incubation, read-out: GI50 Hela
# How it was run: as §1
# [9] = test system: MDA-MB-231 (breast cancer cells); assay: MTT cancer cell growth inhibition; assay type: cell-based; settings: Homo sapiens, MDA-MB-231, 72 h, read-out: GI50 MDA-MB-231, MTT, 72 hours incubation, MDA-MB-231 cells
# How it was run: as §1
# [10] = test system: PANC-1 (Pac-1, human pancreatic cancer cells); assay: MTT cancer cell growth inhibition; assay type: cell-based; settings: Homo sapiens, PANC-1, 72 h, MTT, 72 hours incubation, read-out: GI50 PAN
# How it was run: as §1
# [11] = test system: DU145 (human prostate cancer cells); assay: MTT cancer cell growth inhibition; assay type: cell-based; settings: Homo sapiens, DU-145, 72 h, MTT, 72 hours incubation, read-out: GI50 Du1
# How it was run: as §1
# [12] = test system: A549 (human lung cancer cells); assay: MTT cancer cell growth inhibition; assay type: cell-based; settings: Homo sapiens, A549, 72 h, MTT, 72 hours incubation, read-out: GI50 A54
# How it was run: as §1
# [13] = test system: Huh-7 (human hepatoma cells); assay: MTT cancer cell growth inhibition; assay type: cell-based; settings: Homo sapiens, Huh-7, 72 h, MTT, 72 hours incubation, Huh-7 cells; read-out: GI50 Huh-7
# How it was run: as §1
# [14] = test system: lncap (prostate cancer cells); assay: MTT cancer cell growth inhibition; assay type: cell-based; settings: Homo sapiens, LNCaP, 72 h, MTT, 72 hours incubation, read-out: GI50 lnca
# How it was run: as §1
# [15] = test system: MCF-7 (human breast cancer cells); assay: MTT cancer cell growth inhibition; assay type: cell-based; settings: Homo sapiens, MCF7, 72 h, 72 hours incubation, read-out: GI50 MCF
# How it was run: as §1
# [16] = test system: N-87 (human gastric cancer cells); assay: MTT cancer cell growth inhibition; assay type: cell-based; settings: Homo sapiens, 72 h, MTT, 72 hours incubation, N-87 cells; read-out: GI50 N-87
# How it was run: as §1
# [17] = test system: SGC-7901 (human gastric cancer cells); assay: MTT cancer cell growth inhibition; assay type: cell-based; settings: Homo sapiens, SGC-7901, 72 h, MTT, 72 hours incubation, SGC-7901 cells; read-out: GI50 SGC-7901
# How it was run: as §1
# [18] = test system: KBM5-T315I (human chronic myelogenous leukemia); assay: MTT cancer cell growth inhibition; assay type: cell-based; settings: Homo sapiens, 72 h, MTT, 72 hours incubation, KBM5-T315I cells; read-out: GI50 KBM5-T315I
# How it was run: as §1
# [19] = test system: Bel-7402 (human hepatoma cells); assay: MTT cancer cell growth inhibition; assay type: cell-based; settings: Homo sapiens, Bel-7402, 72 h, MTT, 72 hours incubation, Bel-7402 cells; read-out: GI50 Bel-7402
# How it was run: as §1
# [20] = test system: HT1080 (human fibrosarcoma cells); assay: MTT cancer cell growth inhibition; assay type: cell-based; settings: Homo sapiens, HT-1080, 72 h, MTT, 72 hours incubation, read-out: GI50 HT1
# How it was run: as §1
# HDAC7 = target: T1, HDAC7 (Homo sapiens, UniProt Q8WUI4); assay: HDAC biochemical activity measurement (fluorescent substrate deacetylation);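 as to all read-outs here: fluorogenic deacetylation assay using acetyl-lysine substrate at 20 µM, enzyme and compound incubated 30 min at 37 °C, then developer added, fluorescence read at 360/460 nm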; settings: for IC50 HDAC7: 37° C. 30 minutes
# T1 sequence (Q8WUI4 1-952): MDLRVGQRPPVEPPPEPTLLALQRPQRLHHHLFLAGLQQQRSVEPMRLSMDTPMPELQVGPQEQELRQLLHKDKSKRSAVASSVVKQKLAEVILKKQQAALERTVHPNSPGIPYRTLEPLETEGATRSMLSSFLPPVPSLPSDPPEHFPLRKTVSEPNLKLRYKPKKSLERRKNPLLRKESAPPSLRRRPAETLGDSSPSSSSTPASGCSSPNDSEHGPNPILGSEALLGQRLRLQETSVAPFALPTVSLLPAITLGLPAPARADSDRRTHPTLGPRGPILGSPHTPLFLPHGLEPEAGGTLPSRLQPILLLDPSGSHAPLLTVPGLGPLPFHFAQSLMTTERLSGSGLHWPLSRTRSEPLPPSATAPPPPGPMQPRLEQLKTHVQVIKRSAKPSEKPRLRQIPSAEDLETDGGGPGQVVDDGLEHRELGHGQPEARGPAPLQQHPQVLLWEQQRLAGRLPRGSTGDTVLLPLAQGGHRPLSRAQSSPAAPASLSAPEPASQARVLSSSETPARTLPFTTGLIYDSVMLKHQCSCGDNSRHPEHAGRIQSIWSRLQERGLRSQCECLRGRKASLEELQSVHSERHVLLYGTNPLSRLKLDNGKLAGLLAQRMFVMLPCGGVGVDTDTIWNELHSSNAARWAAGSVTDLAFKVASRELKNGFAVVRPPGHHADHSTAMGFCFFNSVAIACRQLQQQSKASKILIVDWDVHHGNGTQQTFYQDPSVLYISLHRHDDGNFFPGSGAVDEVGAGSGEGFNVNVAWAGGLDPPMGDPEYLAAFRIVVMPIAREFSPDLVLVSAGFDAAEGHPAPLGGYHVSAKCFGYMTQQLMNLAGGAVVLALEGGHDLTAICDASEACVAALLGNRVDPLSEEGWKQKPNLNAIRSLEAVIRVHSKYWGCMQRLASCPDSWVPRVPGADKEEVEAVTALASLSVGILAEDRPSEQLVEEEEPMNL
GI50 [1],GI50 ([2]; MOLT-4 cells),GI50 ([3]; U937 cells),GI50 [4],GI50 ([5]; BGC-823 cells),GI50 [6],GI50 [7],GI50 ([8]; Hela cells),GI50 [9],GI50 ([10]; PANC-1 cells),GI50 ([11]; DU145 cells),GI50 ([12]; A549 cells),GI50 [13],GI50 ([14]; lncap cells),GI50 ([15]; MCF-7 cells),GI50 [16],GI50 [17],GI50 [18],GI50 [19],GI50 ([20]; HT1080 cells),further results,SMILES
62 nM,50 nM,60 nM,24 nM,80 nM,35 nM,35 nM,70 nM,36 nM,50 nM,40 nM,30 nM,58 nM,60 nM,50 nM,63 nM,75 nM,53 nM,23 nM,50 nM,IC50 HDAC7 (HDAC7): no activity,C/C=C1\NC(=O)c2nc(ccc2SC)CNC(=O)C[C@@H](/C=C/CCSC(=O)CCC)OC(=O)[C@H](C(C)C)NC1=O [Compound 159]
11 nM,80 nM,30 nM,57 nM,50 nM,16 nM,37 nM,50 nM,69 nM,60 nM,20 nM,30 nM,72 nM,20 nM,60 nM,35 nM,18 nM,78 nM,87 nM,50 nM,IC50 (μM) HDAC7 (HDAC7): no activity,C/C=C1\NC(=O)c2nc(ccc2SCC)CNC(=O)C[C@@H](/C=C/CCSC(=O)CCCCC)OC(=O)[C@H](C(C)C)NC1=O [Compound 253]
23 nM,60 nM,40 nM,35 nM,50 nM,49 nM,45 nM,70 nM,51 nM,10 nM,60 nM,20 nM,17 nM,20 nM,20 nM,19 nM,53 nM,55 nM,72 nM,70 nM,IC50 HDAC7 (HDAC7): no activity,C/C=C1\NC(=O)c2cc(SC)cc(n2)CNC(=O)C[C@@H](/C=C/CCS)OC(=O)[C@H](C(C)C)NC1=O [Compound 227]
28 nM,90 nM,40 nM,38 nM,40 nM,29 nM,75 nM,40 nM,53 nM,40 nM,50 nM,40 nM,47 nM,40 nM,50 nM,63 nM,12 nM,71 nM,53 nM,90 nM,IC50 HDAC7 (HDAC7): no activity,C/C=C1\NC(=O)c2cc(SC)cc(n2)CNC(=O)C[C@@H](/C=C/CCSC(=O)CCCCC)OC(=O)[C@H](C(C)C)NC1=O [Compound 154]
16 nM,,,93 nM,,18 nM,21 nM,,46 nM,,,,52 nM,,,43 nM,21 nM,36 nM,28 nM,,GI50 [2]: 30 nM; GI50 [3]: 20 nM; GI50 [5]: 50 nM; GI50 [8]: 40 nM; GI50 [10]: 40 nM; GI50 [11]: 20 nM; GI50 [12]: 60 nM; GI50 [14]: 30 nM; GI50 [15]: 60 nM; GI50 [20]: 50 nM; IC50 HDAC7 (HDAC7): no activity,C/C=C1\NC(=O)c2nc(ccc2F)CNC(=O)C[C@@H](/C=C/CCS)OC(=O)[C@H](CCCCN)NC1=O [Compound 116]
28 nM,40 nM,20 nM,67 nM,20 nM,63 nM,37 nM,60 nM,56 nM,20 nM,50 nM,30 nM,83 nM,50 nM,30 nM,28 nM,73 nM,19 nM,36 nM,30 nM,IC50 HDAC7 (HDAC7): no activity,C=C1NC(=O)c2nc(ccc2SC)CNC(=O)C[C@@H](/C=C/CCSC(C)=O)OC(=O)[C@H](C(C)C)NC1=O [Compound 204]
55 nM,50 nM,20 nM,19 nM,30 nM,53 nM,27 nM,50 nM,35 nM,50 nM,60 nM,20 nM,54 nM,10 nM,40 nM,75 nM,96 nM,28 nM,32 nM,80 nM,IC50 HDAC7 (HDAC7): no activity,C/C=C1\NC(=O)c2nc(ccc2SC)CCNC(=O)C[C@@H](/C=C/CCSC(C)=O)OC(=O)[C@H](C(C)C)NC1=O [Compound 223]
